Drawing on patent US20090042964A1, “AMINO-5-[SUBSTITUTED-4-(DIFLUOROMETHOXY)PHENYL]-5-PHENYLIMIDAZOLONE COMPOUNDS AS BETA-SECRETASE INHIBITORS” (Wyeth, priority 2007, published 2009), this text covers IC50 for 41 compounds.

Usually IC50 stands for the point on the concentration scale where inhibition reaches its midpoint.

The target in the first test is human BACE1 (Homo sapiens, UniProt P56817). In words: Fluorescent kinetic assay, evaluation of BACE1 binding affinity of test compounds. The format is biochemical. Conditions: 10 nM human BACE1, 25 μM substrate WABC-6, pH 4.5, room temperature; read-out: BACE1 IC50. The protocol: Concentration is determined by absorbance at 354 nm using an extinction coefficient of 18172 M^-1 cm^-1, the concentration of stock substrate is corrected, and the substrate stock stored in small aliquots in -80° C. […] Determination of Stock Enzyme Concentration: the stock concentration of each enzyme is determined by absorbance at 280 nm using an of 64150 M^-1 cm^-1 for hBACE1 and MuBACE1, 62870 M^-1 cm^-1 for hBACE2 in 6 M Guanidinium Hydrochloride (from Research Organics, Cat. # 5134G-2), pH 6. […] Biochem. 182, 319-326). Dilution and mixing steps: total reaction volume: 100 μL 2× inhibitor dilutions in buffer A (66.7 mM Na-Acetate, pH 4.5, 0.0667% CHAPS) were prepared, 4× enzyme dilution in buffer A (66.7 mM Na-Acetate, pH 4.5, 0.0667% CHAPS) were prepared, 100 μM substrate dilution in 1×PBS was prepared, and 50 μL 2× Inhibitor, 25 μL 100 μM substrate are added to each well of 96-well plate (from DYNEX Technologies, VWR #: 11311-046), immediately followed by 25 μL 4× enzyme (added to the inhibitor and substrate mix), and the fluorescence readings are initiated.
Chain of human BACE1 (P56817 46-501): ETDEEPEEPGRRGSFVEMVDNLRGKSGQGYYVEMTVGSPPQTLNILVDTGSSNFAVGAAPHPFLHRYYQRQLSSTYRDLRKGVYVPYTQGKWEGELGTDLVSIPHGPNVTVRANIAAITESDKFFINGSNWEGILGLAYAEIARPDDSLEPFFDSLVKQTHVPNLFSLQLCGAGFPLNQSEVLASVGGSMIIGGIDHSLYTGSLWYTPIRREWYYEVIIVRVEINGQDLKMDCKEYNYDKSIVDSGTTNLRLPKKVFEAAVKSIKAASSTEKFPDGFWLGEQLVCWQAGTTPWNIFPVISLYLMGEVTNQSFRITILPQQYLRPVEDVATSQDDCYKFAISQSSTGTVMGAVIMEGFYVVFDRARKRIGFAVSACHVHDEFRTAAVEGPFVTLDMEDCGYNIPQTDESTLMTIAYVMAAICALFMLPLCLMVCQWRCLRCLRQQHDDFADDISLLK
For “2-Amino-5-[3-chloro-4-(difluoromethoxy)phenyl]-3-methyl-5-phenyl-3,5-dihydro-4H-imidazol-4-one [Example 16]”, the IC50 was 0.11 to 1 µM.
Consider “2-Amino-5-[4-(difluoromethoxy)-3-(fluoromethyl)phenyl]-3-methyl-5-phenyl-3,5-dihydro-4H-imidazol-4-one [Example 14]”, for which the IC50 is 0.11 to 1 µM.
Consider `CCCC#Cc1cc([C@]2(c3ccc(OC(F)F)c(C)c3)N=C(N)N(C)C2=O)ccc1F` (single isomer, unassigned) [Example 73], for which the IC50 was 0.11 to 1 µM.
Consider `CN1C(=O)[C@](c2ccccc2)(c2ccc(OC(F)F)c(CCF)c2)N=C1N` (single isomer, unassigned) [Example 75], for which the IC50 was < 0.1 µM.
The same measure, in the same setting: the result for `CN1C(=O)[C@@](c2ccccc2)(c2ccc(OC(F)F)c(CCF)c2)N=C1N` (single isomer, unassigned) [Example 76] reads > 1 µM; that for `CCCc1cc([C@]2(c3ccccc3)N=C(N)N(C)C2=O)ccc1OC(F)F` (single isomer, unassigned) [Example 79], < 0.1 µM; that for `CCCc1cc([C@]2(c3ccccc3)N=C(N)N(C)C2=O)ccc1OC(F)F` (single isomer, unassigned) [Example 80], > 1 µM.
On to `CCC#Cc1cc([C@@]2(c3ccc(OC(F)F)c(C)c3)N=C(N)N(C)C2=O)ccc1F` (single isomer, unassigned) [Example 83], for which the IC50 was < 0.1 µM.
As for `CCC#Cc1cc([C@]2(c3ccc(OC(F)F)c(C)c3)N=C(N)N(C)C2=O)ccc1F` (single isomer, unassigned) [Example 84], the IC50 is 0.11 to 1 µM.
On to `CN1C(=O)[C@](c2ccc(F)c(OCCCF)c2)(c2ccc(OC(F)F)c(C3CC3)c2)N=C1N` (single isomer, unassigned) [Example 86], for which the IC50 is < 0.1 µM.
Turning to `CN1C(=O)[C@@](c2ccc(F)c(OCCCF)c2)(c2ccc(OC(F)F)c(C3CC3)c2)N=C1N` (single isomer, unassigned) [Example 87], the IC50 was > 1 µM.
Regarding `CN1C(=O)[C@](c2ccc(F)c(C#CC3CC3)c2)(c2ccc(OC(F)F)c(CCF)c2)N=C1N` (single isomer, unassigned) [Example 93], the IC50 was < 0.1 µM.
Regarding `CN1C(=O)[C@@](c2ccc(F)c(C#CC3CC3)c2)(c2ccc(OC(F)F)c(CCF)c2)N=C1N` (single isomer, unassigned) [Example 94], the IC50 fell in the range of 0.11 to 1 µM.
Take `CN1C(=O)[C@](c2cccc(Br)c2)(c2ccc(OC(F)F)c(C3CC3)c2)N=C1N` (single isomer, unassigned) [Example 165]: the IC50 was < 0.1 µM.
Regarding `CN1C(=O)[C@@](c2cccc(Br)c2)(c2ccc(OC(F)F)c(C3CC3)c2)N=C1N` (single isomer, unassigned) [Example 166], the IC50 was > 1 µM.
On to `CC#Cc1cccc([C@@]2(c3ccc(OC(F)F)c(C4CC4)c3)N=C(N)N(C)C2=O)c1` (single isomer, unassigned) [Example 169], for which the IC50 is < 0.1 µM.
For the compound `CC#Cc1cccc([C@]2(c3ccc(OC(F)F)c(C4CC4)c3)N=C(N)N(C)C2=O)c1` (single isomer, unassigned) [Example 170], the IC50 was > 1 µM.
`CC(C)C#Cc1cccc([C@@]2(c3ccc(OC(F)F)c(C4CC4)c3)N=C(N)N(C)C2=O)c1` (single isomer, unassigned) [Example 174]: the IC50 was < 0.1 µM.
On the same count and under the same terms, the result for `CC(C)C#Cc1cccc([C@]2(c3ccc(OC(F)F)c(C4CC4)c3)N=C(N)N(C)C2=O)c1` (single isomer, unassigned) [Example 175] reads > 1 µM.
Same read-out and setting: the result for `CN1C(=O)[C@](c2cccc(C#CC3CC3)c2)(c2ccc(OC(F)F)c(C3CC3)c2)N=C1N` (single isomer, unassigned) [Example 177] reads < 0.1 µM; that for `CN1C(=O)[C@@](c2cccc(C#CC3CC3)c2)(c2ccc(OC(F)F)c(C3CC3)c2)N=C1N` (single isomer, unassigned) [Example 178], 0.11 to 1 µM.
Consider `COCC#Cc1cccc([C@@]2(c3ccc(OC(F)F)c(C4CC4)c3)N=C(N)N(C)C2=O)c1` (single isomer, unassigned) [Example 181], for which the IC50 was < 0.1 µM.
For `COCC#Cc1cccc([C@]2(c3ccc(OC(F)F)c(C4CC4)c3)N=C(N)N(C)C2=O)c1` (single isomer, unassigned) [Example 182], the IC50 lay within 0.11 to 1 µM.
The same measure, in the same setting: the result for `COCCC#Cc1cccc([C@]2(c3ccc(OC(F)F)c(C4CC4)c3)N=C(N)N(C)C2=O)c1` (single isomer, unassigned) [Example 184] reads 0.11 to 1 µM; that for `COCCC#Cc1cccc([C@@]2(c3ccc(OC(F)F)c(C4CC4)c3)N=C(N)N(C)C2=O)c1` (single isomer, unassigned) [Example 185], < 0.1 µM; that for `CN1C(=O)[C@@](c2cccc(C#CCCCO)c2)(c2ccc(OC(F)F)c(C3CC3)c2)N=C1N` (single isomer, unassigned) [Example 189], 0.11 to 1 µM.
For `CN1C(=O)[C@](c2cccc(C#CCCCO)c2)(c2ccc(OC(F)F)c(C3CC3)c2)N=C1N` (single isomer, unassigned) [Example 190], the IC50 is < 0.1 µM.
The same measure, in the same setting: the same measure for `CN1C(=O)[C@](c2cccc(C#CCCCF)c2)(c2ccc(OC(F)F)c(C3CC3)c2)N=C1N` (single isomer, unassigned) [Example 192]: < 0.1 µM; for `CN1C(=O)[C@@](c2cccc(C#CCCCF)c2)(c2ccc(OC(F)F)c(C3CC3)c2)N=C1N` (single isomer, unassigned) [Example 193]: 0.11 to 1 µM; for `CCCOc1cc(C2(c3ccc(OC(F)F)c(C)c3)N=C(N)N(C)C2=O)ccc1F` (stereo in doubt) [Example 116, (5S)-2-Amino-5-[4-(difluoromethoxy)-3-methylphenyl]-5-(4-fluoro-3-propoxyphenyl)-3-methyl-3,5-dihydro-4H-imidazol-4-one]: < 0.1 µM.
As for `CCc1cc(C2(c3ccc(F)c(OCCCF)c3)N=C(N)N(C)C2=O)ccc1OC(F)F` (stereo in doubt) [Example 122, (5S)-2-Amino-5-[4-(difluoromethoxy)-3-ethylphenyl]-5-[4-fluoro-3-(3-fluoropropoxy)phenyl]-3-methyl-3,5-dihydro-4H-imidazol-4-one], the IC50 is < 0.1 µM.
On to `CC(C)c1cc(C2(c3ccccc3)N=C(N)N(C)C2=O)ccc1OC(F)F` (stereo in doubt) [Example 138, (5R)-2-Amino-5-[4-(difluoromethoxy)-3-isopropylphenyl]-3-methyl-5-phenyl-3,5-dihydro-4H-imidazol-4-one], for which the IC50 is < 0.1 µM.
Regarding `CC(C)c1cc(C2(c3ccccc3)N=C(N)N(C)C2=O)ccc1OC(F)F` (stereo in doubt) [Example 139, (5S)-2-Amino-5-[4-(difluoromethoxy)-3-isopropylphenyl]-3-methyl-5-phenyl-3,5-dihydro-4H-imidazol-4-one], the IC50 was > 1 µM.
On the same count and under the same terms, the same measure for `Cc1cc(C2(c3ccc(F)cc3)N=C(N)N(C)C2=O)ccc1OC(F)F` (centres unmarked) [Example 3, 2-Amino-4-(4-(difluoromethoxy)-3-methylphenyl)-4-(4-fluorophenyl)-1-methyl-1H-imidazol-5(4H)-one]: 0.11 to 1 µM; for `Cc1cc([C@]2(c3ccc(F)cc3)N=C(N)N(C)C2=O)ccc1OC(F)F` [Example 4A, (5S)-2-Amino-4-(4-(difluoromethoxy)-3-methylphenyl)-4-(4-fluorophenyl)-1-methyl-1H-imidazol-5(4H)-one]: > 1 µM.
Regarding `Cc1cc([C@@]2(c3ccc(F)cc3)N=C(N)N(C)C2=O)ccc1OC(F)F` [Example 4B, (5R)-2-Amino-4-(4-(difluoromethoxy)-3-methylphenyl)-4-(4-fluorophenyl)-1-methyl-1H-imidazol-5(4H)-one], the IC50 lay within 0.11 to 1 µM.

The test is the same for the next values; noted with them: BACE1 IC50 μM, 10 nM human BACE1, 25 μM substrate WABC-6, pH 4.5, room temperature.
`Cc1cc(C2(c3ccccc3)N=C(N)N(C)C2=O)cc(C)c1OC(F)F` (centres unmarked) [Example 5, 2-Amino-5-[4-(difluoromethoxy)-3,5-dimethylphenyl]-3-methyl-5-phenyl-3,5-dihydro-4H-imidazol-4-one]: the half-inhibitory concentration (IC50) lay within 0.11 to 1 µM.
Compound `CCc1cc(C2(c3ccccc3)N=C(N)N(C)C2=O)ccc1OC(F)F` (centres unmarked) [Example 6, 2-Amino-5-[4-(difluoromethoxy)-3-ethylphenyl]-3-methyl-5-phenyl-3,5-dihydro-4H-imidazol-4-one] came in with an IC50 of 0.11 to 1 µM.
`CCc1cc(C2(c3ccc(F)cc3)N=C(N)N(C)C2=O)ccc1OC(F)F` (centres unmarked) [Example 7, 2-Amino-4-[4-(difluoromethoxy)-3-ethylphenyl]-4-(4-fluorophenyl)-1-methyl-1H-imidazol-5(4H)-one] yielded an IC50 of 0.11 to 1 µM.
The compound `CCCc1cc(C2(c3ccccc3)N=C(N)N(C)C2=O)ccc1OC(F)F` (centres unmarked) [Example 8, 2-Amino-5-[4-(difluoromethoxy)-3-propylphenyl]-3-methyl-5-phenyl-3,5-dihydro-4H-imidazol-4-one] showed an IC50 of 0.11 to 1 µM.

The same test, now with this note: read-out: BACE1 IC50 μM; 10 nM human BACE1, 25 μM substrate WABC-6, pH 4.5, room temperature.
In the case of `CC(C)c1cc(C2(c3ccccc3)N=C(N)N(C)C2=O)ccc1OC(F)F` (centres unmarked) [Example 9, 2-Amino-5-[4-(difluoromethoxy)-3-isopropylphenyl]-3-methyl-5-phenyl-3,5-dihydro-4H-imidazol-4-one], the IC50 lay in the range of 0.11 to 1 µM.
